# Source: US20030162777A1, “Novel N-acylated heterocycles” (Recordati S.A., priority 2001, published 2003)
# Target: T1, human 5HT1A-serotonergic receptor (Homo sapiens, UniProt P08908)
# T1 construct: expressed in transfected cells; host or cells: HeLa (human cell line), stably transfected; cell membranes used
# T1 sequence (P08908 1-422): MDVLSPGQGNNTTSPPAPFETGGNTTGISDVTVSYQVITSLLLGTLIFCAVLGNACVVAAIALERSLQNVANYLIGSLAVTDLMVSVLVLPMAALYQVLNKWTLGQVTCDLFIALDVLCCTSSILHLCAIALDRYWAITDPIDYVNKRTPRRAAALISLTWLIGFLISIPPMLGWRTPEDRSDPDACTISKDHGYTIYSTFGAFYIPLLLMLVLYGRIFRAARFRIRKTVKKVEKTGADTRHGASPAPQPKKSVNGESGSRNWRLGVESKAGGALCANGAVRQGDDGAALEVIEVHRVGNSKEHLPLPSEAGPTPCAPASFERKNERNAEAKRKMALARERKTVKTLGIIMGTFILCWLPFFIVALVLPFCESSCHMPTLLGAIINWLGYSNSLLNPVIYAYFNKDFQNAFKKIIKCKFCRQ
# Assay: Radioligand binding to recombinant 5-HT1A receptors
# Conditions: [3H]8-OH-DPAT 1 nM, membranes of HeLa cells with human 5-HT1A receptor; Ki from IC50 by Cheng & Prusoff; read-out: Binding affinity for 5HT1A receptors, Ki
# How it was run: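 Membranes from HeLa cells stably expressing human 5-HT1A incubated 30 min at 30 °C with 1 nM [3H]8-OH-DPAT and compound in 50 mM Tris-HCl pH 7.4, 2.5 mM MgCl2, […] pargyline. Nonspecific binding defined with 10 μM 5-HT; filtration readout, IC50 converted to Ki via Cheng–Prusoff.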
row,Ki,Compound
1,15.2 nM,"Cc1ccc(S(=O)(=O)N2c3ccccc3CCC2CN2CCN(c3cccc4[nH]ccc34)CC2)cc1 (centres unmarked) [Example 70A3, 1(4-Indolyl)-4-[1-(4-methylphenylsulphonyl)-1,2,3,4-tetrahydroquinoline-2-ylmethyl]piperazine]"
2,20.9 nM,"O=S(=O)(c1ccc(F)cc1)N1c2ccccc2CCC1CN1CCN(c2cccc3[nH]ccc23)CC1 (centres unmarked) [Example 70A4, 1-[1-(4-Fluorophenylsulphonyl)-1,2,3,4-tetrahydroquinoline-2-ylmethyl]-4-(4-indolyl)piperazine]"
3,40.3 nM,"N#Cc1ccc(S(=O)(=O)N2c3ccccc3CCC2CN2CCN(c3cccc4[nH]ccc34)CC2)cc1 (centres unmarked) [Example 70A5, 1-[1-(4-Cyanophenylsulphonyl)-1,2,3,4-tetrahydroquinoline-2-ylmethyl]-4-(4-indolyl)piperazine]"
4,4.7 nM,"O=S(=O)(Cc1ccccc1)N1c2ccccc2CCC1CN1CCN(c2cccc3[nH]ccc23)CC1 (centres unmarked) [Example 70A6, 1-(4-Indolyl)-4-(1-phenylmethylsulphonyl-1,2,3,4-tetrahydroquinoline-2-ylmethyl)piperazine]"
5,7.8 nM,"O=S(=O)(c1ccccc1)N1c2ccccc2CCC1CN1CCN(c2cccc3[nH]ccc23)CC1 (centres unmarked) [Example 70A, 1-(4-Indolyl)-1-[1-phenylsulphonyl-1,2,3,4-tetrahydroquinoline-2-ylmethyl]piperazine]"
6,47.2 nM,"O=C(C1CCCCC1)N1c2ccccc2CCC1CN1CCC(c2ccccc2)CC1 (centres unmarked) [Example 72A3, 1-(1-Cyclohexanecarbonyl-1,2,3,4-tetrahydroquinolin-2-ylmethyl)-4-phenylpiperidine]"
7,3.2 nM,"O=C(C1CCCCC1)N1c2ccccc2CCC1CN1CCN(c2ncccc2C(F)(F)F)CC1 (centres unmarked) [Example 72A6, 1-(1-Cyclohexanecarbonyl-1,2,3,4-tetrahydroquinolin-2-ylmethyl)-4-(3-trifluoromethylpyridin-2-yl)piperazine]"
8,4.6 nM,"O=C(C1CCCCC1)N1c2ccccc2CCC1CN1CCN(c2ccc(F)cc2[N+](=O)[O-])CC1 (centres unmarked) [Example 72A7, 1-(1-Cyclohexanecarbonyl-1,2,3,4-tetrahydroquinolin-2-ylmethyl)-4-(4-fluoro-2-nitrophenyl)piperazine]"
9,31.6 nM,"O=C(C1CCCCC1)N1c2ccccc2CCC1CN1CCN(c2cccc(Cl)c2Cl)CC1 (centres unmarked) [Example 72A8, 1-(1-Cyclohexanecarbonyl-1,2,3,4-tetrahydroquinolin-2-ylmethyl)-4-(2,3-dichlorophenyl)piperazine]"
10,7.7 nM,"CCc1ccccc1N1CCN(CC2CCc3ccccc3N2C(=O)C2CCCCC2)CC1 (centres unmarked) [Example 72A11, 1-(1-Cyclohexanecarbonyl-1,2,3,4-tetrahydroquinolin-2-ylmethyl)-4-(2-ethylphenyl)piperazine]"
11,7.8 nM,"N#Cc1ccccc1N1CCN(CC2CCc3ccccc3N2C(=O)C2CCCCC2)CC1 (centres unmarked) [Example 72A13, 1-(2-Cyanophenyl)-4-(1-cyclohexanecarbonyl-1,2,3,4-tetrahydroquinolin-2-ylmethyl)piperazine]"
12,38.5 nM,"O=C(C1CCCCC1)N1c2ccccc2CCC1CN1CCN(c2cccc(O)c2)CC1 (centres unmarked) [Example 72A17, 1-(1-Cyclohexanecarbonyl-1,2,3,4-tetrahydroquinolin-2-ylmethyl)-4-(3-hydroxyphenyl)piperazine]"
13,11 nM,"O=C(C1CCCCC1)N1c2ccccc2CCC1CN1CCN(c2ccc(F)cc2F)CC1 (centres unmarked) [Example 72A18, 1-(1-Cyclohexanecarbonyl-1,2,3,4-tetrahydroquinolin-2-ylmethyl)-4-(2,4-difluorophenyl)piperazine]"
14,5.4 nM,"Cc1cccc(N2CCN(CC3CCc4ccccc4N3C(=O)C3CCCCC3)CC2)n1 (centres unmarked) [Example 72A20, 1-(1-Cyclohexanecarbonyl-1,2,3,4-tetrahydroquinolin-2-ylmethyl)-4-(6-methylpyridin-2-yl)piperazine]"
15,24.6 nM,"O=C(C1CCCCC1)N1c2ccccc2CCC1CN1CCN(c2cccc(Cl)c2)CC1 (centres unmarked) [Example 72A23, 1-(3-Chlorophenyl)-4-(1-cyclohexanecarbonyl-1,2,3,4-tetrahydroquinolin-2-ylmethyl)piperazine]"
16,15.3 nM,"COc1cccc(N2CCN(CC3CCc4ccccc4N3C(=O)C3CCCCC3)CC2)c1 (centres unmarked) [Example 72A25, 1-(1-Cyclohexanecarbonyl-1,2,3,4-tetrahydroquinolin-2-ylmethyl)-4-(3-methoxyphenyl)piperazine]"
17,19.6 nM,"O=C(C1CCCCC1)N1c2ccccc2CCC1CN1CCN(c2ccc(F)cc2)CC1 (centres unmarked) [Example 72A26, 1-(1-Cyclohexanecarbonyl-1,2,3,4-tetrahydroquinolin-2-ylmethyl)-4-(4-fluorophenyl)piperazine]"
18,28.1 nM,"Cc1ccc(Cl)cc1N1CCN(CC2CCc3ccccc3N2C(=O)C2CCCCC2)CC1 (centres unmarked) [Example 72A29, 1-(5-Chloro-2-methylphenyl)-4-(1-cyclohexanecarbonyl-1,2,3,4-tetrahydroquinolin-2-ylmethyl)piperazine]"
19,10.9 nM,"Cc1cccc(N2CCN(CC3CCc4ccccc4N3C(=O)C3CCCCC3)CC2)c1 (centres unmarked) [Example 72A30, 1-(1-Cyclohexanecarbonyl-1,2,3,4-tetrahydroquinolin-2-ylmethyl)-4-(3-methylphenyl)piperazine]"
20,39.1 nM,"O=C(C1CCCCC1)N1c2ccccc2CCC1CN1CCC(c2cccc(F)c2)CC1 (centres unmarked) [Example 72A39, 1-(1-Cyclohexanecarbonyl-1,2,3,4-tetrahydroquinolin-2-ylmethyl)-4-(3-fluorophenyl)piperidine]"
21,19.8 nM,"O=C(C1CCCCC1)N1c2ccccc2CCC1CN1CCC(c2ccccc2F)CC1 (centres unmarked) [Example 72A40, 1-(1-Cyclohexanecarbonyl-1,2,3,4-tetrahydroquinolin-2-!ylmethyl)-4-(2-fluorophenyl)piperidine]"
22,15 nM,"O=C(C1CCCCC1)N1c2ccccc2CCC1CN1CCC(c2cccc(Cl)c2Cl)CC1 (centres unmarked) [Example 72A51, 1-(1-Cyclohexanecarbonyl-1,2,3,4-tetrahydroquinolin-2-ylmethyl)-4-(2,3-dichlorophenyl)piperidine]"
23,6.1 nM,"O=C(C1CCCCC1)N1c2ccccc2CCC1CN1CCC(c2c(F)cccc2Cl)CC1 (centres unmarked) [Example 72A53, 4-(2-Chloro-6-fluorophenyl)-1-(1-cyclohexanecarbonyl-1,2,3,4-tetrahydroquinolin-2-ylmethyl)piperidine]"
24,10.1 nM,"Cc1ccccc1C1CCN(CC2CCc3ccccc3N2C(=O)C2CCCCC2)CC1 (centres unmarked) [Example 72A56, 1-(1-Cyclohexanecarbonyl-1,2,3,4-tetrahydroquinolin-2-ylmethyl)-4-(2-methylphenyl)piperidine]"
25,6.4 nM,"Cc1c(F)cccc1C1CCN(CC2CCc3ccccc3N2C(=O)C2CCCCC2)CC1 (centres unmarked) [Example 72A57, 1-(1-Cyclohexanecarbonyl-1,2,3,4-tetrahydroquinolin-2-ylmethyl)-4-(3-fluoro-2-methylphenyl)piperidine]"
26,15.5 nM,"O=C(C1CCCCC1)N1c2ccccc2CCC1CN1CCN(c2cccc(Cl)n2)CC1 (centres unmarked) [Example 72A65, 1-(1-Cyclohexanecarbonyl-1,2,3,4-tetrahydroquinolin-2-ylmethyl)-4-(6-chloropyridin-2-yl)piperazine]"

row,Compound,Ki
1,"CC(C)(C)OC(=O)NCCC(=O)N1c2ccccc2CCC1CN1CCN(c2cccc3[nH]ccc23)CC1 (centres unmarked) [Example 71A1, 1-[1-(3-tert-Butoxycarbonylamino)propionyl-1,2,3,4-tetrahydroquinoline-2-ylmethyl]-4-(4-indolyl)piperazine]",15.2 nM
2,"CC(C)(C)OC(=O)n1cc(CC(=O)N2c3ccccc3CCC2CN2CCN(c3cccc4[nH]ccc34)CC2)c2ccccc21 (centres unmarked) [Example 71A2, 1-[1-[2-(1-tert-Butoxycarbonylindol-3-yl)acetyl]-1,2,3,4-tetrahydroquinoline-2-ylmethyl]-4-(4-indolyl]piperazine]",92 nM
3,"CC(C)(C)OC(=O)N1CCC(C(=O)N2c3ccccc3CCC2CN2CCN(c3cccc4[nH]ccc34)CC2)CC1 (centres unmarked) [Example 71A3, 1-[1-[4-(1-tert-Butoxycarbonylpiperidino)carbonyl]-1,2,3,4-tetrahydroquinoline-2-ylmethyl]-4-(4-indolyl)piperazine]",40.6 nM
4,"CC(C)(C)OC(=O)N1CCC[C@@H]1C(=O)N1c2ccccc2CCC1CN1CCN(c2cccc3[nH]ccc23)CC1 (stereo partly drawn) [Example 71A4, 1-[1-(1-tert-Butoxycarbonyl-(2R)-pyrrolidin-2yl)carbonyl-1,2,3,4-tetrahydroquinoline-2-ylmethyl]-4-(4-indolyl)piperazine]",45.9 nM
5,"CC(C)(C)OC(=O)N1CCC[C@H]1C(=O)N1c2ccccc2CCC1CN1CCN(c2cccc3[nH]ccc23)CC1 (stereo partly drawn) [Example 71A5, 1-[1-(1-tert-Butoxycarbonyl-(2S)-pyrrolidin-2yl)carbonyl-1,2,3,4-tetrahydroquinoline-2-ylmethyl]-4-(4-indolyl)piperazine]",45 nM
6,"CC(C)(C)OC(=O)NCC(=O)N1c2ccccc2CCC1CN1CCN(c2cccc3[nH]ccc23)CC1 (centres unmarked) [Example 71A, 1-[1-(2-tert-Butoxycarbonylamino)acetyl-1,2,3,4-tetrahydroquinoline-2-ylmethyl]-4-(4-indolyl)piperazine]",35.7 nM
